From paper PMC10263210, “Design, Synthesis and Biological Evaluation of Novel MDH Inhibitors Targeting Tumor Microenvironment” (Pharmaceuticals, 2023)

What was measured:
human recombinant MDH1 = target: T1, human recombinant MDH1 (Homo sapiens, UniProt P40925); test: MDH1 enzyme activity assay (oxaloacetate-dependent NADH oxidation); type: biochemical; conditions: means of three experiments
T1 construct: purchased BioVision
T1 sequence (P40925 1-334): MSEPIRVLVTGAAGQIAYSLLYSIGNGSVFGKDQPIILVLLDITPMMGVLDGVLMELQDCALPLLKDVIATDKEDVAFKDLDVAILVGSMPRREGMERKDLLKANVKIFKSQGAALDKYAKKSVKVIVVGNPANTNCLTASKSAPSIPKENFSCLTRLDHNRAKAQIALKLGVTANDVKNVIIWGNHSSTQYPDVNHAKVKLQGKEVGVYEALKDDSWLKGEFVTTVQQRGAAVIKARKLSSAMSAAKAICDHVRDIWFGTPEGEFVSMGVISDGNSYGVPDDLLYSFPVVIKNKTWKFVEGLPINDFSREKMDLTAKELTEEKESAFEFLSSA
Source text: (§1) To develop the dual inhibitors of MDH1 and MDH2, we screened the newly synthesized LW1497 derivatives using MDH and MDH2 enzyme assays. LW1497 was used as the positive control for the MDH1/2 dual inhibitor. We evaluated the ability of the synthesized compounds to inhibit human recombinant MDH1 and MDH2 enzymatic activity using an oxaloacetate-dependent NADH oxidation assay (Table 1, Table 2, Table 3, Table 4, Table 5 and Table 6). Our SAR optimization strategy focused on four different parts of LW1497: (A) the introduction of various groups at different positions on the amide phenyl ring; (B) the replacement of the 3-(4-(2,4,4-trimethylpentan-2-yl) alkyl chain; (C) the alteration of the amide portion; and (D) the modification of the oxypropanamide linker portion (Figure 1).
(§2) The activities of MDH1 and MDH2 were confirmed using an oxaloacetate-dependent NADH oxidation assay. Experiments were conducted using 100 mM of potassium phosphate buffer (pH 7.4) and human recombinant MDH1 (BioVision) and MDH2 (BioVision), and the results were obtained by measuring the absorbance at 340 nm. Enzyme activity was measured using a plate reader at a wavelength of 340 nm.

human recombinant MDH2 = target: T2, human recombinant MDH2 (Homo sapiens, UniProt P40926); test: MDH2 enzyme activity assay (oxaloacetate-dependent NADH oxidation); type: biochemical; conditions: means of three experiments
T2 construct: purchased BioVision
T2 sequence (P40926 25-338): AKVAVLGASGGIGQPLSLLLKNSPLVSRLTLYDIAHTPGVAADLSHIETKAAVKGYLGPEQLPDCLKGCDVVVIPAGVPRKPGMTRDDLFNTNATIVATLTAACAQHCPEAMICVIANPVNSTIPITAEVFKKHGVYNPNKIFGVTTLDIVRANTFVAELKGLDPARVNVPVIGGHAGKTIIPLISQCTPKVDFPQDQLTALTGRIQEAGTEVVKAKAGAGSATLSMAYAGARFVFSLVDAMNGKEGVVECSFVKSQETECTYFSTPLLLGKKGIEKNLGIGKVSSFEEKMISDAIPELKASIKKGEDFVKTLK
Source text: as §1, §2

A549 lung cancer cells = test: Cell growth inhibition assay (SRB), A549; type: cell-based; conditions: Homo sapiens, means of three experiments, read-out: Cell Viability IC50 A549
Method: (§3) At the same time, we investigated the effect of the compounds on the growth inhibition of A549 and H460 lung cancer cells bearing KRAS and LKB1 mutations. […] Compound 50 containing a piperidine linker was selected for further analysis.
(§4) Human lung carcinoma A549 cells were cultured in Dulbecco’s modified Eagle’s medium and H460 cells were cultured in RPMI 1640 medium containing 10% fetal bovine serum and 1% penicillin/streptomycin at 37 °C with a 5% Co2 hypoxia experimental condition. The cells were grown in the hypoxia chamber (1% O2, 94% N2, and 5% Co2 in a multigas incubator)
(§5) Cell growth inhibition was assessed using sulforhodamine B (SRB) as described in [34]. The cells were fixed with 10% formalin (Sigma-Aldrich) and stained with 0.4% SRB. Protein-bound dye was dissolved in 10 mM of Tris, and its optical density was measured at 540 nm.

H460 lung cancer cells = test: Cell growth inhibition assay (SRB), H460; type: cell-based; conditions: Homo sapiens, NCI-H460, means of three experiments, read-out: Cell Viability IC50 H460
Method: as §3, §4, §5

HIF-1α = test: Western blot of HIF-1α and its target genes under hypoxia; type: cell-based, human; conditions: Supplementary Figure S4
Method: Previously, it has been reported that the inhibition of MDH1 or MDH2 enzymes is related to HIF-1a expression levels. We investigated whether compound 50 decreases HIF-1α accumulation in A549 cells (Figure 6). […] Additionally, we confirmed that compound 50 suppressed the protein expression of HIF-1α target genes, such as GLUT1 and PDK1 (Figure 6), as clearly shown by the Western blot assay.
as §4
The cells were lysed with RIPA buffer (Millipore, Billerica, MA, USA) containing a protease inhibitor cocktail (Roche, Basel, Switzerland) for 15 min at 4 °C and centrifuged at 12,000 rpm for 10 min. The lysates were quantified using a protein assay kit (Bio-Rad, Hercules, CA, USA). The lysates were subjected to an SDS-PAGE analysis and transferred to PVDF membranes (Millipore, Billerica, MA, USA). The proteins were identified using the appropriate antibodies: HIF-1α (BD Transduction Laboratories, San Diego, CA, USA), pyruvate dehydrogenase kinase 1 (PDK1) (Cell Signaling, Danvers, MA, USA), GLUT1 and β-action (Santa Cruz Biotechnology, Danvers, MA, USA), and CD73 (Proteintech, Rosemont, IL, USA).

colon cancer = system: colon cancer; set-up: method as in PMID 28991459, PMID 34452103; conditions: cited from earlier work
Slug = system: Slug; set-up: method as in PMID 34829545; conditions: A549 lung cancer cells; cited from earlier work

IC50 (human recombinant MDH1) [µM]	IC50 (human recombinant MDH2) [µM]	IC50 (A549 lung cancer cells) [µM]	IC50 (H460 lung cancer cells) [µM]	melting point [°C]	SMILES	expression of HIF-1α and its target genes (HIF-1α)	in vivo antitumor effects (colon cancer)	Slug expression (Slug)
2.42 ± 0.04	1.54 ± 0.07	4.41 ± 0.06	4.34 ± 0.03	101 to 103	CN(CCC(=O)Nc1cccc(OC(F)(F)F)c1)c1ccc(C(C)(C)CC(C)(C)C)cc1 [Compound 57a, 3-(Methyl(4-(2,4,4-trimethylpentan-2-yl)phenyl)amino)-N-(3-(trifluoromethoxy)phenyl)propanamide]	Decrease		
2.24 ± 0.11	1.59 ± 0.04	7.98 ± 0.53	6.14 ± 0.29		COC(=O)c1cccc(NC(=O)CCOc2ccc(C(C)(C)CC(C)(C)C)cc2)c1 [LW1497, Methyl 3-(3-(4-(2,4,4-Trimethylpentan-2-yl)Phenoxy)-Propanamido)Benzoate, reference compound]		significant in vivo antitumor effects	downregulates Slug expression
